US20180221352A1, “3-(1H-PYRROLO[2,3-C]PYRIDIN-2-YL)-1H-PYRAZOLO[3,4-B]PYRIDINES AND THERAPEUTIC USES THEREOF” (Samumed, LLC, priority 2015, published 2018)
pEC50: −log10 of the molar value.

What was measured:
Assay type in all cases: cell-based
[1] = tested on: Wnt activity (Sp5-Luc reporter, SW480 colon carcinoma cells); assay: Wnt activity screening assay, Sp5-Luc reporter gene in SW480 cells; conditions: Homo sapiens; for inhibition at 10 µM: SW480, read-out: percent inhibition at 10 μM; for pEC50: Sp5-Luc reporter, SW480 cells, overnight incubation
Summary of the method: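 SW480 cells stably carrying a luciferase reporter driven by an Sp5 promoter with eight TCF/LEF sites, plated overnight in 1% FBS medium at 37 °C. Luminescence read with BrightGlo. Signals normalized to DMSO-treated cells; EC50 from four-parameter variable-slope fit.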

[2] = tested on: primary human mesenchymal stem cells (hMSCs); assay: Induction of chondrogenesis in hMSCs (nodule count); conditions: 6 days; for Emax: relative to TGF-β3 (10 ng/mL) positive control, read-out: Max. Activity as % TGF-β3 activity; for EC50: concentration required to induce 50% levels of chondrogenesis vs TGF-β3, read-out: Conc (nM) of 50% TGF-β3 activity
Excerpt: Representative compounds were screened using primary human mesenchymal stem cells (hMSCs) to determine their ability to induce chondrogenesis (process by which cartilage is developed).
Primary human mesenchymal stem cells (hMSCs) were purchased from Lonza (Walkersville, Md.) and expanded in Mesenchymal Stem Cell Growth Media (Lonza). Cells between passage 3 and 6 were used for the experiments.
To image chondrogenic nodules, the cells were fixed using 4% formaldehyde (Electron Microscopy Sciences), and stained with 2 μg/mL Rhodamine B (Sigma-Aldrich) and 20 μM Nile Red (Sigma-Aldrich) [Johnson K., et. al, A Stem Cell-Based Approach to Cartilage Repair, Science, (2012). […] Number of nodules in each well was normalized to the average of 3 DMSO treated wells on the same plate using Excel (Microsoft Inc.). The normalized averages (fold change over DMSO) of 3 replicate wells for each compound concentration were calculated. Due to solubility limitations of some of the compounds, curve fitting was incomplete leading to inaccurate EC50 determinations.
Using TGF-β3 as a positive control, the concentration of representative compounds required to induce 50% levels of chondrogenesis is reported. In addition, the maximum activity of each compound and the respective dose that each compound reached maximum chondrogenesis activity is reported.

SW480 colon cancer cells = assay: Cell viability assay (CellTiter-Blue); conditions: Homo sapiens; for pEC50: 96 h, SW480 cell viability, four days; for inhibition at 10 µM: SW480, 96 h, read-out: percent inhibition at 10 μM
Summary of the method: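 Fluorescence from resazurin reduced to resorufin by metabolically active cells was the read-out, taken after ~3 h with CellTiter-Blue.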

[3] = tested on: primary human fibroblasts derived from IPF patients (LL29 cells); assay: Inhibition of fibrotic process, αSMA staining in TGF-β1 treated fibroblasts; conditions: Fibroblast; for pEC50: 96 h, LL29 cells, TGF-β1 20 ng/mL, 4 days, % αSMA positive cells
Summary of the method: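 LL29 fibroblasts plated in F12 with 1% FBS were stimulated with TGF-β1 alongside compound, with TGF-β1 plus DMSO wells as controls. After 4 days of incubation, SYTOX green was added at 1 μM final for 30 min at room temperature.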

IL-6 = IL-6 inhibition in LPS-stimulated THP-1 cells (HTRF); conditions: Homo sapiens; for pEC50: THP-1 cells, LPS 500 ng/mL, 22 hours, IL6 HTRF; for inhibition at 10 µM: THP-1, read-out: percent inhibition at 10 μM
Summary of the method: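 Serum-reduced (1% FBS, 24 h) THP-1 cells, 5000/well, exposed to compound 2 h at 37 °C, then stimulated with 500 ng/mL LPS for 22 h. Secreted IL-6 measured by HTRF (665/620 ratio), normalised to DMSO; EC50 by four-parameter fit, duplicates.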

Structure (SMILES) | pEC50 [1] | pEC50 (SW480 colon cancer cells) | pEC50 (IL-6) | EC50 [2] [nM] | inhibition at 10 µM [1] [%] | Emax [2] [%] | inhibition at 10 µM (SW480 colon cancer cells) [%] | pEC50 [3] | inhibition at 10 µM (IL-6) [%] | inhibition at 10 µM ([3]; read-out: percent inhibition at 10 μM) [%]
O=C(Nc1cncc(-c2cnc3[nH]nc(-c4cc5c(-c6ccccc6F)cncc5[nH]4)c3c2)c1)C1CC1 [Compound 76, N-(5-(3-(4-(2-Fluorophenyl)-1H-pyrrolo[2,3-c]pyridin-2-yl)-1H-pyrazolo [3,4-b]pyridin-5-yl)pyridin-3-yl)cyclopropanecarboxamide] | 6.41 | 6.53 | < 5.00 | 10 |  | 52 |  | 6.96 | 22 | 
Fc1cccc(-c2cncc3[nH]c(-c4n[nH]c5ncc(-c6cccnc6)cc45)cc23)c1 [Compound 4, 3-(4-(3-Fluorophenyl)-1H-pyrrolo[2,3-c]pyridin-2-yl)-5-(pyridin-3-yl)-1H-pyrazolo[3,4-b]pyridine] | 6.24 | 5.97 | 6.63 |  |  | 36 |  | 6.00 |  | 
Cc1ccncc1-c1cnc2[nH]nc(-c3cc4c(-c5cccnc5)cncc4[nH]3)c2c1 [Compound 89, 5-(4-Methylpyridin-3-yl)-3-(4-(pyridin-3-yl)-1H-pyrrolo[2,3-c]pyridin-2-yl)-1H-pyrazolo[3,4-b]pyridine] | 5.65 | 5.48 | 5.46 |  |  | 17 |  | 5.83 |  | 
Cc1ccncc1-c1cnc2[nH]nc(-c3cc4c(-c5ccc(F)cc5)cncc4[nH]3)c2c1 [Compound 33, 3-(4-(4-Fluorophenyl)-1H-pyrrolo[2,3-c]pyridin-2-yl)-5-(4-methylpyridin-3-yl)-1H-pyrazolo[3,4-b]pyridine] | < 5.00 | 5.68 | < 5.00 | 10 | 49.4 | 67 |  | 5.98 | 26.1 | 
Fc1ccc(-c2cncc3[nH]c(-c4n[nH]c5ncc(-c6cncnc6)cc45)cc23)cc1 [Compound 55, 3-(4-(4-Fluorophenyl)-1H-pyrrolo[2,3-c]pyridin-2-yl)-5-(pyrimidin-5-yl)-1H-pyrazolo[3,4-b]pyridine] | 6.23 | 5.95 | < 5.00 |  |  | 24 |  | 6.07 | 29.8 | 
CC(C)C(=O)Nc1cncc(-c2cnc3[nH]nc(-c4cc5c(-c6ccccc6F)cncc5[nH]4)c3c2)c1 [Compound 65, N-(5-(3-(4-(2-Fluorophenyl)-1H-pyrrolo[2,3-c]pyridin-2-yl)-1H-pyrazolo [3,4-b]pyridin-5-yl)pyridin-3-yl)isobutyramide] | 5.68 | 5.54 | 5.84 |  |  | 45 |  | 5.62 |  | 
CC(C)Nc1cncc(-c2cnc3[nH]nc(-c4cc5c(-c6cccc(F)c6)cncc5[nH]4)c3c2)c1 [Compound 12, 5-(3-(4-(3-Fluorophenyl)-1H-pyrrolo[2,3-c]pyridin-2-yl)-1H-pyrazolo[3,4-b]pyridin-5-yl)-N-isopropylpyridin-3-amine] | 6.62 | 6.07 | 6.83 | 900 |  | 104 |  | 6.15 |  | 

The next lines start with results.

pEC50 [1] | pEC50 (SW480 colon cancer cells) | pEC50 (IL-6) | EC50 [2] [nM] | Structure (SMILES) | inhibition at 10 µM [1] [%] | Emax [2] [%] | inhibition at 10 µM (SW480 colon cancer cells) [%] | pEC50 [3] | inhibition at 10 µM (IL-6) [%] | inhibition at 10 µM ([3]; read-out: percent inhibition at 10 μM) [%]
< 5.00 | < 5.00 | 6.31 |  | FC1(F)CCN(Cc2cncc(-c3cnc4[nH]nc(-c5cc6c(-c7ccncc7)cncc6[nH]5)c4c3)c2)C1 [Compound 138, 5-(5-((3,3-Difluoropyrrolidin-1-yl)methyl)pyridin-3-yl)-3-(4-(pyridin-4-yl)-1H-pyrrolo[2,3-c]pyridin-2-yl)-1H-pyrazolo[3,4-b]pyridine] | 40.8 | 37 | 24.1 | 6.06 |  | 
< 5.00 | < 5.00 | 6.39 |  | Nc1cncc(-c2cnc3[nH]nc(-c4cc5c(-c6ccncc6)cncc5[nH]4)c3c2)c1 [Compound 115, 5-(3-(4-(Pyridin-4-yl)-1H-pyrrolo[2,3-c]pyridin-2-yl)-1H-pyrazolo[3,4-b]pyridin-5-yl)pyridin-3-amine] | 13.9 | 32 | 17.8 | 5.45 |  | 
5.45 | 5.46 | 6.40 | 2700 | O=C(Nc1cncc(-c2cnc3[nH]nc(-c4cc5ccncc5[nH]4)c3c2)c1)C1CCCCC1 [Compound 275, N-(5-(3-(1H-Pyrrolo[2,3-c]pyridin-2-yl)-1H-pyrazolo[3,4-b]pyridin-5-yl)pyridin-3-yl)cyclohexanecarboxamide] |  | 291 |  | 5.77 |  | 
< 5.00 | < 5.00 | < 5.00 |  | CCNCc1cncc(-c2cnc3[nH]nc(-c4cc5c(-c6cc(F)cc(CNS(C)(=O)=O)c6)cncc5[nH]4)c3c2)c1 [Compound 482, N-(3-(2-(5-(5-((Ethylamino)methyl)pyridin-3-yl)-1H-pyrazolo[3,4-b]pyridin-3-yl)-1H-pyrrolo[2,3-c]pyridin-4-yl)-5-fluorobenzyl)methanesulfonamide] | 12.8 | 43 | 7 | 5.30 | 47.9 | 
6.38 | 6.19 | 6.77 | 100 | Fc1ccccc1-c1cncc2[nH]c(-c3n[nH]c4ncc(-c5cn[nH]c5)cc34)cc12 [Compound 539, 3-(4-(2-Fluorophenyl)-1H-pyrrolo[2,3-c]pyridin-2-yl)-5-(1H-pyrazol-4-yl)-1H-pyrazolo[3,4-b]pyridine] |  | 51 |  | 7.00 |  | 
< 5.00 | 5.44 | < 5.00 |  | CN(C)CCOc1cncc(-c2cnc3[nH]nc(-c4cc5c(-c6ccc(F)cc6)cncc5[nH]4)c3c2)c1 [Compound 531, 2-((5-(3-(4-(4-Fluorophenyl)-1H-pyrrolo[2,3-c]pyridin-2-yl)-1H-pyrazolo [3,4-b]pyridin-5-yl)pyridin-3-yl)oxy)-N,N-dimethylethan-1-amine] | 48.5 | 28 |  | < 5.00 | 22.9 | 11.4
